“And” between values parts separate entries of the source, which are not always exact repeats. Equal values may be shown once. After the bases stand the sugars from the 5' end (letter, count) and the backbone: PS all phosphorothioate, else s phosphorothioate and o phosphodiester by linkage. Methylation of C is not given here. k = constrained ethyl (cEt); d = 2'-deoxy (DNA)

The series deals with MALAT1. The settings on record: ASO, A431, 0.005 µM.
Consider CAACTGGGAATACTCT (sugars k3 d10 k3, PS), for which the target mRNA inhibition turned out to be 20%.
With AGTTGGTAATTACTCT (sugars k3 d10 k3, PS), the target mRNA inhibition is 40%.
For the sequence CCGGAATTCGATCACC (sugars k3 d10 k3, PS), the target mRNA inhibition came to 9%.
Take CTTCAAGCACCGCTTG (sugars k3 d10 k3, PS): the target mRNA inhibition was 21% and 28%.
On to GAGATACCTGTCTGAG (sugars k3 d10 k3, PS), for which the target mRNA inhibition worked out at 40%.
For TAAATGACGCAATTCT (sugars k3 d10 k3, PS), the target mRNA inhibition stood at 8%.
As to TGCTTGGGAAATCTTA (sugars k3 d10 k3, PS), the target mRNA inhibition was found to be 23%.
The same measure for AACACCCGGAAATCGG (sugars k3 d10 k3, PS): 26%.
Consider GGAGTTGAGGCAAGTC (sugars k3 d10 k3, PS), for which the target mRNA inhibition came out at 41%.
For the sequence TCTTCCGCTCAAATCC (sugars k3 d10 k3, PS), the target mRNA inhibition was 41%.
In the case of AAGGCAAATCGCCATG (sugars k3 d10 k3, PS), the target mRNA inhibition amounted to 14%.
On to GACTTTCTCCCCCAAC (sugars k3 d10 k3, PS), for which the target mRNA inhibition amounted to 6%.
Consider ATAACTGATCTGACTT (sugars k3 d10 k3, PS), for which the target mRNA inhibition was -5%.
For TCTTGAGGGACAGTAG (sugars k3 d10 k3, PS), the target mRNA inhibition was -7%.
As for TCTGAGTGAAGTGTAC (sugars k3 d10 k3, PS), the target mRNA inhibition came to 34%.
CCGTCCTGGAAACCAG (sugars k3 d10 k3, PS): the target mRNA inhibition was determined as 16%.
For the sequence CTCCCCCCCGCCTCAG (sugars k3 d10 k3, PS), the target mRNA inhibition was 12%.
Turning to GCCTGGAATTATTATA (sugars k3 d10 k3, PS), the target mRNA inhibition came to 31%.
The same measure for AAACGAAACATTGGCA (sugars k3 d10 k3, PS): 46%; for CCTCCTCCGTGTGGTT (sugars k3 d10 k3, PS): 32%.
As for TCCAATACTTGTCTTA (sugars k3 d10 k3, PS), the target mRNA inhibition is 68% and 75%.
Then TACCTAAACCCACCCC (sugars k3 d10 k3, PS), with 6%; and CTGAAGTCAAGACAAC (sugars k3 d10 k3, PS), with -17%.
ATCCACTTGATCCCAA (sugars k3 d10 k3, PS): the target mRNA inhibition came to 16%.
On to AACTTGCCATCTACTA (sugars k3 d10 k3, PS), for which the target mRNA inhibition is -18%.
In the case of TCCTGACAAATTATAC (sugars k3 d10 k3, PS), the target mRNA inhibition was found to be 28%.
Regarding AATTACTTCCGTTACG (sugars k3 d10 k3, PS), the target mRNA inhibition turned out to be 43%.
In the case of TGCTAGTCCTCAGGAT (sugars k3 d10 k3, PS), the target mRNA inhibition came out at 19%.
With CACCCGGAAATCGGCC (sugars k3 d10 k3, PS), the target mRNA inhibition is -1%.
Take GTTTTATCTAAATACC (sugars k3 d10 k3, PS): the target mRNA inhibition came out at 29%.
Take GATCTTGAATTACTTC (sugars k3 d10 k3, PS): the target mRNA inhibition came out at 49%.
Then TGCCAACAGCACAGCG (sugars k3 d10 k3, PS), with 1%; and AGTTTGCTCACATGCC (sugars k3 d10 k3, PS), with 65% and 53%; and AAACTAAGCTACTATA (sugars k3 d10 k3, PS), with -17%.
Take TCCCTAACATGCAATA (sugars k3 d10 k3, PS): the target mRNA inhibition was 30%.
As for GCACATCATGCTATTC (sugars k3 d10 k3, PS), the target mRNA inhibition came out at 45%.
ACTGAAGAGCATTGGA (sugars k3 d10 k3, PS): the target mRNA inhibition was determined as 34%.
As for CGCTAAGATGCTAGCT (sugars k3 d10 k3, PS), the target mRNA inhibition was -6%.
On to AATTGGTAGCTTTCAT (sugars k3 d10 k3, PS), for which the target mRNA inhibition was 64% and 81%.
As to CAACAATCACTACTCC (sugars k3 d10 k3, PS), the target mRNA inhibition turned out to be 16%.
TGAACCAAAGCTGCAC (sugars k3 d10 k3, PS): the target mRNA inhibition came to 2%.
The same measure for GGCTGACACTTCTCTT (sugars k3 d10 k3, PS): 52% and 64%.
Take AGGTATGAGCTTCAGA (sugars k3 d10 k3, PS): the target mRNA inhibition is 1%.
The same measure for TGCTCCCCGCCTGAGC (sugars k3 d10 k3, PS): 24%; for GGAAGATTAAAGTGTG (sugars k3 d10 k3, PS): 21%; for TCCTGAAATCCCCTAG (sugars k3 d10 k3, PS): -12%.
Consider ACAGCTAAGATAGCAG (sugars k3 d10 k3, PS), for which the target mRNA inhibition is 2%.
Turning to GCCACTCAAATGCCTA (sugars k3 d10 k3, PS), the target mRNA inhibition stood at 18%.
For the sequence CTTGAAGACTGTTGCT (sugars k3 d10 k3, PS), the target mRNA inhibition turned out to be 42%.
The same measure for ACAATTACCTAAACCC (sugars k3 d10 k3, PS): 33%.
Then GTCTTAGCAGAGAATT (sugars k3 d10 k3, PS), with 47%.
Then GTTACTCCAGCATAAA (sugars k3 d10 k3, PS), with 0%; and ACTGAATCCACTTCTG (sugars k3 d10 k3, PS), with 35%; and TCCTATCTTCACCACG (sugars k3 d10 k3, PS), with 40%.
In the case of TGAGGCAAACGAAACA (sugars k3 d10 k3, PS), the target mRNA inhibition stood at 16%.
Then CTCTGATCTGCGGCCC (sugars k3 d10 k3, PS), with -6%.
Then CTTAAGAGGGCAGGAG (sugars k3 d10 k3, PS), with -4%; and AGAAGTCTCGGGCTGC (sugars k3 d10 k3, PS), with 8%.
Then CTTGAGATTTGGGCTT (sugars k3 d10 k3, PS), with 12% and 2%; and CTTTAAGTTCTCTGGC (sugars k3 d10 k3, PS), with 64% and 82%.
CCTACCGCACAGCTCG (sugars k3 d10 k3, PS): the target mRNA inhibition turned out to be 3%.
In the case of TTAAGTTGGTAATTAC (sugars k3 d10 k3, PS), the target mRNA inhibition was -6%.
The same measure for GTCTCATACACTCACT (sugars k3 d10 k3, PS): -4%; for TTCTTCGCCTTCCCGT (sugars k3 d10 k3, PS): 66% and 49%; for TGCAATACTGCAGATG (sugars k3 d10 k3, PS): 20%.
The same measure for TAACTACCAGCCATTT (sugars k3 d10 k3, PS): 24%.
Turning to CCAACCGTAACAGGCC (sugars k3 d10 k3, PS), the target mRNA inhibition came to 27%.
The same measure for GTCAAGCTCCTGACAA (sugars k3 d10 k3, PS): 33%; for CTTCATGACCCTACTG (sugars k3 d10 k3, PS): 36%; for GCCTGCTACCTTCATC (sugars k3 d10 k3, PS): 36%.
As to CCTTCGGTTTAATCTC (sugars k3 d10 k3, PS), the target mRNA inhibition is 61% and 58%.
With AGGTTCTAGTTTTACT (sugars k3 d10 k3, PS), the target mRNA inhibition was 16%.
As for ACTGCAAGGTCTCATA (sugars k3 d10 k3, PS), the target mRNA inhibition is -1%.
On to CCTATCTTCTCCAGTC (sugars k3 d10 k3, PS), for which the target mRNA inhibition was -13%.
In the case of TTCGAGAAATCGGAGC (sugars k3 d10 k3, PS), the target mRNA inhibition is -11%.
Turning to ACTGGGAATACTCTTC (sugars k3 d10 k3, PS), the target mRNA inhibition was found to be 28%.
With GTGGCCTTTTAAAGTA (sugars k3 d10 k3, PS), the target mRNA inhibition was 15%.
Take CAGATGCAAGTTAAAC (sugars k3 d10 k3, PS): the target mRNA inhibition is 40%.
The same measure for CAGAAAAAGCTTGTTC (sugars k3 d10 k3, PS): 37%; for GGATTTGAACCCCGTC (sugars k3 d10 k3, PS): 30%; for CGTCCCCATATAAATC (sugars k3 d10 k3, PS): 1%.
As to AGCTATTAAAATTACG (sugars k3 d10 k3, PS), the target mRNA inhibition turned out to be 22%.
For GCCTTTATCACTCAGC (sugars k3 d10 k3, PS), the target mRNA inhibition came out at 29%.
The same measure for ATACTTCTCCAATACT (sugars k3 d10 k3, PS): -15%.
Take GCTAAGCAATATCTTA (sugars k3 d10 k3, PS): the target mRNA inhibition is 32%.
Then CAACTTGGAAGTTGAT (sugars k3 d10 k3, PS), with 10%; and GAAATCCCTTCAGGAT (sugars k3 d10 k3, PS), with 14%; and CCACTTGATCCCAACT (sugars k3 d10 k3, PS), with 47%.
For CTATTCTTTTCTTCGC (sugars k3 d10 k3, PS), the target mRNA inhibition worked out at 37%.
GTATTACTCTAATCAC (sugars k3 d10 k3, PS): the target mRNA inhibition is 34%.
In the case of TACAACAAGTAAGCCC (sugars k3 d10 k3, PS), the target mRNA inhibition amounted to 20%.
As to ACTCCCCCATTATATT (sugars k3 d10 k3, PS), the target mRNA inhibition was 2%.
The same measure for TTACTTGCCAACTTGG (sugars k3 d10 k3, PS): 70% and 68%; for TGTATTAATCTCTATC (sugars k3 d10 k3, PS): 41%.
The same measure for AGGTTACCATAAGTAA (sugars k3 d10 k3, PS): 10%.
On to ATAAGCACTTATCCCT (sugars k3 d10 k3, PS), for which the target mRNA inhibition amounted to 50%.
The same measure for ATACATCAAGGATGTA (sugars k3 d10 k3, PS): 19%; for AATTTAGAGCTTCTCC (sugars k3 d10 k3, PS): 21%.
Turning to CCTTAGTTGGCATCAA (sugars k3 d10 k3, PS), the target mRNA inhibition was 82% and 63%.

Values taken from the OligoGym collection.
